Patent US10632227B2, “Method of making injectable cements” (Wayne State University, priority 2015, dated 2020)

Test system: S. aureus
Test: modified MIC assay, bactericidal activity of eluents from CPP mix cements
Format: cell-based
Conditions: EM eluted from cement or gel
Description: A modified minimum inhibitory concentration (MIC) assay was developed to measure the bactericidal activity of erythromycin eluted from the CPP mix cements. Briefly, a Mueller-Hinton broth inoculated with S. aureus […] was cultured at about 37° C. until an absorbance reading of about 0.08 to about 0.1 was attained at 625 nm, corresponding to roughly 1-2×10^8 CFU/ml. Then about 200 μl of eluents from CPP mix cements collected at various time points was added into about 800 μL of the bacterial broth and incubation continued at about 37° C. for about 6 hours, followed by OD measurement at about 625 nm. The MIC was determined by the lowest concentration that inhibited the growth of bacterium as characterized by a lack of turbidity and lower OD readings. Bacterial culture in Mueller Hinton broth without erythromycin was included as a positive control. Bactericidal activity assays were conducted in duplicate for both the blank and testing samples.

CC[C@H]1OC(=O)[C@H](C)[C@@H](O[C@H]2C[C@@](C)(OC)[C@@H](O)[C@H](C)O2)[C@H](C)[C@@H](O[C@@H]2O[C@H](C)C[C@H](N(C)C)[C@H]2O)[C@](C)(O)C[C@@H](C)C(=O)[C@H](C)[C@@H](O)[C@]1(C)O [EM, erythromycin]
bactericidal activity / stability of eluted EM: stable and active
